Legend:
[1] = Physicochemical characteristics: solubility
Description: The physicochemical characteristics of UHA4022 are as follows.

[2] = tested on: 3T3-L1 precursor adipocyte; assay: Example II-3: index gene expression in adipocytes after maturation, with or without adrenaline stimulation, real-time RT-PCR; type: cell-based, mouse; details: matured cells, 1 μM L-adrenaline for 2 hours; control 3.1 times
Description: Since it was evaluated in Example II-2 whether the derivative-containing composition induces the differentiation from the white adipocytes into the brown-like adipocytes using the cells immediately after the induction of the differentiation, it was evaluated in Example II-3 whether the relevant induced cell maintains the trait of the brown-like adipocytes even after maturation using matured adipocytes. The evaluation was made using as indexes the expression level of each gene of FGF-21, PGC-1α, and cell death-inducing DFFA-like effector a (Cidea) which is a brown-like adipocyte marker gene as well as the expression level of […] gene when adding adrenaline to the adipocyte after maturation based on the understanding that the brown-like adipocyte responds to the adrenaline stimulation thereby increasing the expression level of UCP1 gene, whereby the induction of the differentiation of the white adipocytes into the brown-like adipocytes was confirmed. […]
Based on the Ct values (Threshold Cycle: number of cycles for achieving a certain amplification level (threshold)) of […], FGF-21, PGC-1α, PGC-1β, Cidea, and UCP1 in each cell obtained, the relative value of each gene expression level of FGF-21, PGC-1β, PGC-1α, Cidea, and UCP1 was calculated.

Solubility in chloroform ([1]; Chloroform)	Solubility in DMSO ([1]; DMSO)	Solubility in ethanol ([1]; Ethanol)	Solubility in ethyl acetate ([1]; Ethyl acetate)	Solubility in methanol ([1]; Methanol)	Solubility in water ([1]; Water)	Structure (SMILES)	UCP1 gene expression-increasing effect of adrenaline, presence vs absence of adrenaline [2] [times]
Hardly soluble	Soluble	Soluble	Hardly soluble	Soluble	Hardly soluble	Oc1ccc(/C=C\c2c3c(cc4c2C(c2ccc(O)cc2)Cc2cc(O)cc(O)c2-4)-c2c(O)cc(O)cc2CC3c2ccc(O)cc2)cc1 (stereo not shown) [UHA4022]	
						CN(CCOc1ccc(CC2SC(=O)NC2=O)cc1)c1ccccn1 (stereo not shown) [rosiglitazone]	6.2

From patent US20160053227A1, “AGENT FOR INDUCING DIFFERENTIATION OF WHITE ADIPOCYTES INTO BROWN-LIKE ADIPOCYTES” (UHA MIKAKUTO CO., LTD., priority 2013, published 2016)
